# According to ChEMBL document CHEMBL3045339, “Synthesis of benzoxazoles, benzothiazoles and benzimidazoles and evaluation of their antifungal, insecticidal and herbicidal activities” (1992):
# What was measured:
# Type in all cases: functional
# [1] = tested on: Pseudomonas aeruginosa; test: Antibacterial activity against Pseudomonas aeruginosa after 48 hr
# [2] = tested on: Amaranthus viridis; test: Herbicidal activity against Amaranthus viridis assessed as disease control at 1000 ppm treated in foliage during 15 to 20 days relative to control
# [3] = tested on: Oryza sativa; test: Herbicidal activity against Oryza sativa assessed as disease control at 1000 ppm treated in paddy field during 15 to 20 days relative to control
# [4] = tested on: Echinochloa crus-galli; test: Herbicidal activity against Echinochloa crus-galli (barnyard grass) assessed as disease control at 1000 ppm treated in paddy field during 15 to 20 days relative to control
# [5] = tested on: Pseudoperonospora cubensis; test: Antifungal activity against Pseudoperonospora cubensis after 7 days; design: concentration or dose not given beside the values
# [6] = tested on: Persicaria hydropiper; test: Herbicidal activity against Persicaria hydropiper assessed as disease control at 1000 ppm treated in foliage during 15 to 20 days relative to control
# [7] = tested on: Xanthomonas axonopodis; test: Antibacterial activity against Xanthomonas axonopodis after 7 days; design: concentration or dose not given beside the values
# [8] = tested on: Eleusine indica; test: Herbicidal activity against Eleusine indica assessed as disease control at 1000 ppm treated in foliage during 15 to 20 days relative to control
# [9] = tested on: Persicaria hydropiper; test: Herbicidal activity against Persicaria hydropiper assessed as disease control at 1000 ppm treated in soil during 15 to 20 days relative to control
# [10] = tested on: Cyperus compressus; test: Herbicidal activity against Cyperus compressus assessed as disease control at 1000 ppm treated in paddy field during 15 to 20 days relative to control
# [11] = tested on: Echinochloa crus-galli; test: Herbicidal activity against Echinochloa crus-galli (barnyard grass) assessed as disease control at 1000 ppm treated in foliage during 15 to 20 days relative to control
# [12] = tested on: Eleusine indica; test: Herbicidal activity against Eleusine indica assessed as disease control at 1000 ppm treated in soil during 15 to 20 days relative to control
# [13] = tested on: Pyricularia oryzae; test: Antifungal activity against Magnaporthe oryzae after 7 days; design: concentration or dose not given beside the values
# [14] = tested on: Fusarium fujikuroi; test: Antifungal activity against Fusarium fujikuroi after 7 days; design: concentration or dose not given beside the values
# [15] = tested on: Botrytis cinerea; test: Antifungal activity against Botryotinia fuckeliana after 7 days; design: concentration or dose not given beside the values
# [16] = tested on: Bacillus subtilis; test: Antibacterial activity against Bacillus subtilis after 48 hr
# [17] = tested on: Amaranthus viridis; test: Herbicidal activity against Amaranthus viridis assessed as disease control at 1000 ppm treated in soil during 15 to 20 days relative to control
# [18] = tested on: Chenopodium album; test: Herbicidal activity against Chenopodium album assessed as disease control at 1000 ppm treated in foliage during 15 to 20 days relative to control
# [19] = tested on: Echinochloa crus-galli; test: Herbicidal activity against Echinochloa crus-galli (barnyard grass) assessed as disease control at 1000 ppm treated in soil during 15 to 20 days relative to control
# [20] = tested on: Chenopodium album; test: Herbicidal activity against Chenopodium album assessed as disease control at 1000 ppm treated in soil during 15 to 20 days relative to control
# [21] = tested on: Escherichia coli; test: Antibacterial activity against Escherichia coli after 48 hr
Structure (SMILES),Activity [2],Activity [3],Activity [4],Activity [5],Activity [6],Activity [7],Activity [8],Activity [9],Activity [10],Activity [11],Activity [12],Activity [13],Activity [14],Activity [15],Activity [17],Activity [18],Activity [19],Activity [20],further results
c1ccc2nc(-c3nc4ccccc4[nH]3)ccc2c1,–,–,–,–,–,–,–,–,–,–,–,–,–,–,–,–,–,–,MIC [1]: 100 µg/mL
c1ccc(-c2nc3ccccc3[nH]2)nc1,<39%,<39%,<39%,>80%,<39%,60%,<39%,<39%,<39%,<39%,<39%,<39%,<39%,60%,<39%,<39%,<39%,<39%,MIC [1]: 100 µg/mL; MIC [16]: 100 µg/mL
c1ccc2nc(-c3nc4ccccc4s3)ccc2c1,<39%,<39%,<39%,<39%,<39%,<39%,<39%,<39%,<39%,<39%,<39%,<39%,<39%,<39%,<39%,<39%,<39%,<39%,–
c1ccc2oc(-c3nc4ccccc4s3)nc2c1,<39%,<39%,<39%,<39%,<39%,<39%,<39%,<39%,<39%,<39%,<39%,<39%,<39%,<39%,<39%,<39%,<39%,<39%,–
Clc1ccc2sc(-c3ccccn3)nc2c1,60%,<39%,<39%,<39%,<39%,<39%,<39%,<39%,>80%,<39%,<39%,<39%,<39%,<39%,<39%,40%,<39%,<39%,–
COc1ccc2sc(-c3ccncc3)nc2c1,<39%,<39%,<39%,<39%,<39%,<39%,<39%,<39%,60%,<39%,<39%,<39%,<39%,<39%,<39%,<39%,<39%,<39%,–
COc1ccc2sc(-c3ccccn3)nc2c1,40%,40%,<39%,<39%,<39%,<39%,<39%,<39%,60%,<39%,<39%,<39%,<39%,<39%,<39%,<39%,<39%,<39%,–
c1ccc2[nH]c(-c3ccncc3)nc2c1,–,–,–,–,–,–,–,–,–,–,–,–,–,–,–,–,–,–,MIC [1]: 100 µg/mL
O=[N+]([O-])c1cccc2nc(-c3ccccn3)[nH]c12,<39%,<39%,<39%,<39%,<39%,<39%,<39%,<39%,<39%,<39%,<39%,40%,<39%,<39%,<39%,<39%,<39%,<39%,–
CCOc1ccc2sc(-c3ccncc3)nc2c1,<39%,<39%,<39%,<39%,<39%,<39%,<39%,<39%,>80%,<39%,<39%,<39%,<39%,<39%,<39%,<39%,<39%,<39%,–
Cc1cccc2[nH]c(-c3ccccn3)nc12,<39%,<39%,<39%,<39%,<39%,<39%,<39%,<39%,<39%,<39%,<39%,40%,<39%,60%,<39%,<39%,<39%,<39%,–
COc1ccc2[nH]c(-c3ccncc3)nc2c1,<39%,<39%,<39%,40%,<39%,60%,<39%,<39%,<39%,<39%,<39%,>80%,<39%,60%,<39%,<39%,<39%,<39%,–
Cc1ccc2nc(-c3ccccn3)[nH]c2c1,40%,<39%,<39%,60%,<39%,40%,<39%,<39%,<39%,<39%,<39%,60%,<39%,<39%,<39%,60%,<39%,<39%,MIC [21]: 50 µg/mL; MIC [16]: 100 µg/mL
c1ccc(-c2nc3ccccc3o2)nc1,<39%,<39%,<39%,<39%,<39%,<39%,<39%,<39%,40%,<39%,<39%,<39%,<39%,<39%,<39%,<39%,<39%,<39%,–
c1ccc2oc(-c3ccncc3)nc2c1,<39%,<39%,40%,<39%,<39%,<39%,<39%,<39%,<39%,<39%,<39%,<39%,60%,40%,<39%,<39%,<39%,<39%,–
c1ccc2nc(-c3nc4ccccc4o3)ccc2c1,<39%,40%,<39%,<39%,<39%,<39%,<39%,<39%,<39%,<39%,<39%,<39%,<39%,<39%,<39%,<39%,<39%,<39%,–
CCOc1ccc2sc(-c3ccccn3)nc2c1,40%,<39%,40%,<39%,<39%,<39%,<39%,<39%,40%,<39%,<39%,<39%,<39%,<39%,<39%,60%,<39%,<39%,–
